From ChEMBL document CHEMBL3045059, “Efficacy of ketoenols on insecticide resistant field populations of two-spotted spider mite Tetranychus urticae and sweet potato whitefly Bemisia tabaci from Greece” (2012)
Values after ≈ are worked out from the molar mass of the structure shown.

Key:
Type in all cases: functional
Tetranychus urticae [1] = test: Acaricidal activity against larvae of Tetranychus urticae (two-spotted spider mite) field population TU2 in bean leaves assessed as mortality applied at 1 bar pressure measured after 6 days
Tetranychus urticae [2] = test: Resistance ratio, ratio of LC50 for larvae of Tetranychus urticae (two-spotted spider mite) greenhouse population TU1 to LC50 for larvae of Tetranychus urticae laboratory strain SAMB measured after 6 days
Tetranychus urticae [3] = test: Acaricidal activity against larvae of Tetranychus urticae (two-spotted spider mite) field population TU6 in bean leaves assessed as mortality applied at 1 bar pressure measured after 6 days
Tetranychus urticae [4] = test: Resistance ratio, ratio of LC50 for larvae of Tetranychus urticae (two-spotted spider mite) greenhouse population TU7 to LC50 for larvae of Tetranychus urticae laboratory strain SAMB measured after 6 days
Tetranychus urticae [5] = test: Acaricidal activity against larvae of Tetranychus urticae (two-spotted spider mite) laboratory strain SAMB in bean leaves assessed as mortality applied at 1 bar pressure measured after 6 days
Tetranychus urticae [6] = test: Resistance ratio, ratio of LC50 for larvae of Tetranychus urticae (two-spotted spider mite) field population TU2 to LC50 for larvae of Tetranychus urticae laboratory strain SAMB measured after 6 days
Tetranychus urticae [7] = test: Resistance ratio, ratio of LC50 for larvae of Tetranychus urticae (two-spotted spider mite) field population TU6 to LC50 for larvae of Tetranychus urticae laboratory strain SAMB measured after 6 days
Tetranychus urticae [8] = test: Resistance ratio, ratio of LC50 for larvae of Tetranychus urticae (two-spotted spider mite) greenhouse population TU5 to LC50 for larvae of Tetranychus urticae laboratory strain SAMB measured after 6 days
Tetranychus urticae [9] = test: Acaricidal activity against larvae of Tetranychus urticae (two-spotted spider mite) mixed strain ALL-14 selected with spirodiclofen for 14 generations in bean leaves assessed as mortality by applying constant selection pressure under laboratory conditions
Tetranychus urticae [10] = test: Acaricidal activity against larvae of Tetranychus urticae (two-spotted spider mite) field population TU12 in bean leaves assessed as mortality applied at 1 bar pressure measured after 6 days
Tetranychus urticae [11] = test: Acaricidal activity against larvae of Tetranychus urticae (two-spotted spider mite) greenhouse population TU9 in bean leaves assessed as mortality applied at 1 bar pressure measured after 6 days
Tetranychus urticae [12] = test: Acaricidal activity against larvae of Tetranychus urticae (two-spotted spider mite) greenhouse population TU3 in bean leaves assessed as mortality applied at 1 bar pressure measured after 6 days
Tetranychus urticae [13] = test: Resistance ratio, ratio of LC50 for larvae of Tetranychus urticae (two-spotted spider mite) field population TU12 to LC50 for larvae of Tetranychus urticae laboratory strain SAMB measured after 6 days
Tetranychus urticae [14] = test: Resistance ratio, ratio of LC50 for larvae of Tetranychus urticae (two-spotted spider mite) field population TU4 to LC50 for larvae of Tetranychus urticae laboratory strain SAMB measured after 6 days
Tetranychus urticae [15] = test: Resistance ratio, ratio of LC50 for larvae of Tetranychus urticae (two-spotted spider mite) greenhouse population TU3 to LC50 for larvae of Tetranychus urticae laboratory strain SAMB measured after 6 days
Tetranychus urticae [16] = test: Resistance ratio, ratio of LC50 for larvae of Tetranychus urticae (two-spotted spider mite) greenhouse population TU11 to LC50 for larvae of Tetranychus urticae laboratory strain SAMB measured after 6 days
Tetranychus urticae [17] = test: Acaricidal activity against larvae of Tetranychus urticae (two-spotted spider mite) greenhouse population TU1 in bean leaves assessed as mortality applied at 1 bar pressure measured after 6 days
Tetranychus urticae [18] = test: Acaricidal activity against larvae of Tetranychus urticae (two-spotted spider mite) greenhouse population TU11 in bean leaves assessed as mortality applied at 1 bar pressure measured after 6 days
Tetranychus urticae [19] = test: Acaricidal activity against larvae of Tetranychus urticae (two-spotted spider mite) greenhouse population TU5 in bean leaves assessed as mortality applied at 1 bar pressure measured after 6 days
Tetranychus urticae [20] = test: Resistance ratio, ratio of LC50 for larvae of Tetranychus urticae (two-spotted spider mite) greenhouse population TU9 to LC50 for larvae of Tetranychus urticae laboratory strain SAMB measured after 6 days
Tetranychus urticae [21] = test: Resistance ratio, ratio of LC50 for larvae of Tetranychus urticae (two-spotted spider mite) mixed strain ALL-14 selected with spirodiclofen for 14 generations to LC50 for larvae of Tetranychus urticae (two-spotted spider mite) laboratory strain SAMB measured after 6 days
Tetranychus urticae [22] = test: Resistance ratio, ratio of LC50 for larvae of Tetranychus urticae (two-spotted spider mite) laboratory strain GSS to LC50 for larvae of Tetranychus urticae laboratory strain SAMB measured after 6 days
Tetranychus urticae [23] = test: Acaricidal activity against larvae of Tetranychus urticae (two-spotted spider mite) greenhouse population TU7 in bean leaves assessed as mortality applied at 1 bar pressure measured after 6 days
Tetranychus urticae [24] = test: Acaricidal activity against larvae of Tetranychus urticae (two-spotted spider mite) laboratory strain GSS in bean leaves assessed as mortality applied at 1 bar pressure measured after 6 days
Tetranychus urticae [25] = test: Acaricidal activity against larvae of Tetranychus urticae (two-spotted spider mite) field population TU4 in bean leaves assessed as mortality applied at 1 bar pressure measured after 6 days

## CCC(C)(C)C(=O)OC1=C(c2ccc(Cl)cc2Cl)C(=O)OC12CCCCC2 [SPIRODICLOFEN]
Tetranychus urticae [1]
  LC95: 18.6 µg/mL (≈ 45.2 µM)
Tetranychus urticae [1]; Tetranychus urticae, TU2, 144 h
  LC50: 3.2 µg/mL (≈ 7.78 µM)
Tetranychus urticae [2]
  RatioLC50: 1.2
Tetranychus urticae [3]
  LC95: 2.3 µg/mL (≈ 5.59 µM)
Tetranychus urticae [3]; Tetranychus urticae, TU6, 144 h
  LC50: 0.5 µg/mL (≈ 1.22 µM)
Tetranychus urticae [4]
  RatioLC50: 12
Tetranychus urticae [5]
  LC95: 7.8 µg/mL (≈ 19 µM)
Tetranychus urticae [5]; Tetranychus urticae, SAMB, 144 h
  LC50: 2.2 µg/mL (≈ 5.35 µM)
Tetranychus urticae [6]
  RatioLC50: 1.4
Tetranychus urticae [7]
  RatioLC50: 0.2
Tetranychus urticae [8]
  RatioLC50: 1.1
Tetranychus urticae [9]
  LC95: 32.1 µg/mL (≈ 78 µM)
Tetranychus urticae [9]; Tetranychus urticae, mixed strain ALL-14
  LC50: 9.5 µg/mL (≈ 23.1 µM)
Tetranychus urticae [10]
  LC95: 23.8 µg/mL (≈ 57.9 µM)
Tetranychus urticae [10]; Tetranychus urticae, TU12, 144 h
  LC50: 5.5 µg/mL (≈ 13.4 µM)
Tetranychus urticae [11]
  LC95: 43.4 µg/mL (≈ 106 µM)
Tetranychus urticae [11]; Tetranychus urticae, TU9, 144 h
  LC50: 5 µg/mL (≈ 12.2 µM)
Tetranychus urticae [12]
  LC95: 5 µg/mL (≈ 12.2 µM)
Tetranychus urticae [12]; Tetranychus urticae, TU3, 144 h
  LC50: 1.6 µg/mL (≈ 3.89 µM)
Tetranychus urticae [13]
  RatioLC50: 2.5
Tetranychus urticae [14]
  RatioLC50: 1.1
Tetranychus urticae [15]
  RatioLC50: 0.7
Tetranychus urticae [16]
  RatioLC50: 3.9
Tetranychus urticae [17]
  LC95: 17.9 µg/mL (≈ 43.5 µM)
Tetranychus urticae [17]; Tetranychus urticae, TU1, 144 h
  LC50: 2.7 µg/mL (≈ 6.56 µM)
Tetranychus urticae [18]
  LC95: 46.1 µg/mL (≈ 112 µM)
Tetranychus urticae [18]; Tetranychus urticae, TU11, 144 h
  LC50: 8.7 µg/mL (≈ 21.2 µM)
Tetranychus urticae [19]
  LC95: 4.6 µg/mL (≈ 11.2 µM)
Tetranychus urticae [19]; Tetranychus urticae, TU5, 144 h
  LC50: 2.5 µg/mL (≈ 6.08 µM)
Tetranychus urticae [20]
  RatioLC50: 2.2
Tetranychus urticae [21]
  RatioLC50: 4.3
Tetranychus urticae [22]
  RatioLC50: 0.6
Tetranychus urticae [23]
  LC95: 87.7 µg/mL (≈ 213 µM)
Tetranychus urticae [23]; Tetranychus urticae, TU7, 144 h
  LC50: 27 µg/mL (≈ 65.6 µM)
Tetranychus urticae [24]
  LC95: 4 µg/mL (≈ 9.72 µM)
Tetranychus urticae [24]; Tetranychus urticae, GSS, 144 h
  LC50: 1.4 µg/mL (≈ 3.4 µM)
Tetranychus urticae [25]
  LC95: 8 µg/mL (≈ 19.4 µM)
Tetranychus urticae [25]; Tetranychus urticae, TU4, 144 h
  LC50: 2.5 µg/mL (≈ 6.08 µM)
